Reference: ChEMBL document CHEMBL1150191, “Isolation of Eupalmerin, a Minor Cembranoid Diterpene from the Caribbean Gorgonian Eunicea mammosa” (J Nat Prod, 1991)
Converted amounts (≈) assume the structure as drawn.

Assay: Cytotoxicity against CHOK1 cells
Assay type: cell-based, Cricetulus griseus
Conditions: chinese hamster, CHO-K1 cells; read-out: ED50 (the source's name)

For C=C1C(=O)O[C@H]2[C@H](O)[C@@H](C)CCC/C(C)=C/CC[C@@]3(C)O[C@H]3C[C@@H]12 [EUPALMERIN], the CC50 was 5.46 µg/mL (≈ 16.3 µM).
